The NOAEL is the highest dose or exposure tested at which no adverse effect was seen.

The structures appear in SMILES notation. Converted amounts (≈) assume the structure as drawn.

The values that follow come from EPA's ToxValDB 9.5 (doi:10.2903/j.efsa.2013.3166).

One series relates to Pimephales promelas. As to conditions: acute; mortality.
The test system of another series is Apis mellifera. As to conditions: acute, duration: 48 hours, mortality.
Another series concerns Lepomis macrochirus. The note with it: acute; duration: 96 hours; mortality.
The subject of a further series is Colinus virginianus. The note with it: for LD50: acute, oral, mortality.
Another series deals with Perca sp. The note with it: acute; duration: 96 hours; mortality.
The test system of another series is Canidae. As to conditions: chronic; duration: 1 years; oral; Dog Other; food consumption.
The subject of a further series is Typhlodromus pyri. As to the kind of experiment: LR50; higher = less toxic. As to conditions: not reported; mortality.
[1] abbreviates: acute, duration: 14 days, mortality.

Regarding `CC(C)(C)c1ccc(CCOc2ncnc3ccccc23)cc1` [Fenazaquin], the LC50 in the series with Pimephales promelas is 4.2 ng/mL (≈ 0.0137 µM); in the series on Tagia sp. (setting [1]), 26.5 mg/kg; in the series on Lepomis macrochirus, 34.1 ng/mL (≈ 0.111 µM); in the series with Folsomia candida (setting [1]) it was greater than 1000 mg/kg; in the series with Perca sp. it was 3.2 ng/mL (≈ 0.0104 µM). Besides, the LD50 was 1.21 µg/piece in the series with Apis mellifera (dermal); 4.29 µg/piece in the series on Apis mellifera (oral, unspecified); 134 mg/kg-day in the series with Rattus norvegicus (acute, oral, M, mortality); greater than 1170 mg/kg-day in the series on Colinus virginianus (diet); 1750 mg/kg-day in the series with Colinus virginianus. For the same molecule, the NOEC in the series on Tagia sp. (chronic/long-term, duration: 8 weeks) amounted to 1.25 mg/kg; in the series with Colinus virginianus (reproduction developmental) it was 80.3 mg/kg-day; in the series with Folsomia candida (chronic/long-term, duration: 28 days), 23 mg/kg. Further, the NOAEL with Rattus norvegicus (chronic, duration: 2 years, oral, histopathology: nonneoplastic) is 0.46 mg/kg-day; in the series on Rattus norvegicus (reproduction developmental, food consumption), 10 mg/kg-day; in the series with Canidae, 5 mg/kg-day. Further, the NOEL with Rattus norvegicus (reproduction developmental) was 25 mg/kg-day. The molecule also had an LR50 with Typhlodromus pyri of less than 2 g/ha.
